# According to PubChem BioAssay AID651973 (The Scripps Research Institute Molecular Screening Center, 2013):
# Calls of active or inactive are those of the source. The rule behind the calls is not given here.
# Tested on: Cell-based VP16 transactivation luciferase reporter, luminescence
# Experiment: VP16 transactivation reporter inhibitors, dose response, counter-screen for LRH-1 inverse agonist project, cell-based, luminescence (AID 651973)
row,Compound,IC50
1,Cc1ccc(-c2nn3c(C)nnc3s2)cc1NC(=O)c1ccco1,> 35.9 µM (inactive)
2,O=C(COC(=O)c1ccc(Br)cc1)Nc1ccccc1Br,> 35.9 µM (inactive)
3,O=C(COc1ccc2c3c(c(=O)oc2c1)CCCC3)NCCN1CCOCC1,> 35.8 µM (inactive)
4,O=C(COc1ccc2c3c(c(=O)oc2c1)CCC3)NCc1ccncc1,> 35.9 µM (inactive)
5,COC(=O)c1ccc(NC(=O)CSc2nn3c(=O)c(C)nnc3s2)cc1,> 35.9 µM (inactive)
6,Cc1cc([N+](=O)[O-])ccc1NC(=O)CSc1nnc(C)n1C,> 35.8 µM (inactive)
7,COc1cc([N+](=O)[O-])ccc1NC(=O)Cn1ccsc1=N,> 35.9 µM (inactive)
8,CCOc1ccc(NC(=O)CN2CCN(CC(=O)Nc3ccc(OC)cc3)CC2)cc1,> 35.9 µM (inactive)
9,COc1ccc(CC(NC(C)=O)C(=O)NC2CCN(c3nnnn3-c3ccccc3)CC2)cc1 (configuration not stated),> 35.9 µM (inactive)
10,Cc1ccccc1Nc1nc(-c2cccnc2)nc2ccccc12,34.6 µM (inactive)
11,CC(C)(Oc1ccc(Cl)cc1)C(=O)OCC(=O)NCCc1ccccc1,> 35.9 µM (inactive)
12,COC(=O)c1ccc(COc2ccc(/C=N/NC(N)=S)cc2)o1,> 35.9 µM (inactive)
13,CCC(C)NC(=O)c1ccc2c(c1)N(Cc1ccccc1)C(=O)CS2 (configuration not stated),> 35.9 µM (inactive)
14,COc1ccc(/C=N/NC(=O)c2ccc(NC(=O)c3cccc([N+](=O)[O-])c3)cc2)c(OC)c1,> 35.9 µM (inactive)
15,Cc1cc(=O)oc2c(C)c(OCC(=O)NC3CC(C)(C)NC(C)(C)C3)ccc12,> 35.9 µM (inactive)
16,CCc1c(C)nc(SCC(=O)Nc2ccc3c(c2)OCCO3)[nH]c1=O,> 35.9 µM (inactive)
17,COc1ccc(CCNC(=O)COC(=O)c2cc(Cl)nc(Cl)c2)cc1,> 35.9 µM (inactive)
18,CCC(C)(C)n1nnnc1CN1CCC(O)(c2cccc(C(F)(F)F)c2)CC1,> 35.9 µM (inactive)
19,COc1ccc(NC(=O)CN2C(=O)NC3(CCCC3)C2=O)cc1,> 35.9 µM (inactive)
20,COc1ccc(NC(=O)COC(=O)Cc2c[nH]c3ccccc23)cc1Cl,> 35.9 µM (inactive)
21,COc1ccc(NC(=O)CSc2ncnc3[nH]ncc23)cc1,> 35.9 µM (inactive)
22,COc1ccc(S(=O)(=O)Nc2ccc3c(c2)n(C)c(=O)n3C)cc1F,> 35.9 µM (inactive)
23,CCCc1nnc(SCC(=O)Nc2ccc(OC)cc2)o1,> 35.9 µM (inactive)
24,CCOCC(=O)Nc1ccc(S(=O)(=O)NCCc2ccccc2)cc1,> 35.9 µM (inactive)

row,Compound,IC50
1,Cc1ccc(NC(=O)COC(=O)C(NS(=O)(=O)c2ccc(Cl)cc2)C(C)O)cc1C (configuration not stated),> 35.9 µM (inactive)
2,O=C(COc1ccc2c3c(c(=O)oc2c1)CCCC3)NCc1ccccn1,> 35.9 µM (inactive)
3,CC1CC(C)CN(c2cc(N(C)CCO)c([N+](=O)[O-])c3nonc23)C1 (configuration not stated),> 35.9 µM (inactive)
4,COc1cc(/C=N/n2nnnc2N)ccc1OCc1c(C)no[n+]1[O-],> 35.9 µM (inactive)
5,CC(=O)Nc1cc(-c2cccc(F)c2)cn2c(-c3ccc(S(C)(=O)=O)cc3)cnc12,18.7 µM (inactive)
6,O=C(OCC(=O)N1CCN(C(=O)COC(=O)c2ccc(O)cc2O)CC1)c1ccc(O)cc1O,> 35.9 µM (inactive)
7,CCc1cc(=O)[nH]c(SCC(=O)Nc2ccc3c(c2)OCCO3)n1,> 35.9 µM (inactive)
8,COc1ccnc(Oc2ccccc2)c1C(=O)N/C=N/OCc1ccccc1F,28.2 µM (inactive)
9,N#CCSc1ccccc1NC(=O)CN1C(=O)C2CC=CCC2C1=O (configuration not stated),> 35.9 µM (inactive)
10,CC(=O)Nc1cc(-c2ccc(F)cc2)cn2c(-c3ccc(S(C)(=O)=O)cc3)cnc12,> 35.9 µM (inactive)
11,Cc1no[n+]([O-])c1COc1ccc(/C=N/n2nnnc2N)cc1,> 35.9 µM (inactive)
12,CC(Oc1ccc(S(=O)(=O)N2CCCC2)cc1[N+](=O)[O-])C(=O)NC(C)c1ccccc1 (configuration not stated),20.1 µM (inactive)
13,Cc1cc(OCC(=O)Nc2nccs2)c2c(C)cc(=O)oc2c1,> 35.9 µM (inactive)
14,COc1ccc(OC)c(NC(=O)c2ccccc2NC(=O)c2ccco2)c1,> 35.9 µM (inactive)
15,CC(=O)Nc1ccc(NC(=O)CSc2nnc(NC(=O)C3CC3)s2)cc1,> 35.9 µM (inactive)
16,COc1ccccc1NC(=O)CN1CCN(CC(=O)Nc2ccc3c(c2)OCCO3)CC1,> 35.9 µM (inactive)
17,CCOc1ccc(NC(=O)COC(=O)c2ccc3c(c2)OCCO3)cc1,> 35.9 µM (inactive)
18,CCCN(CC(=O)Nc1ccccc1C)CC(=O)Nc1ccc(Br)cc1F,> 35.9 µM (inactive)
19,COc1cc(NC(=O)Cn2ccsc2=N)c(C)cc1[N+](=O)[O-],> 35.9 µM (inactive)
20,O=C(Cc1ccc(S(=O)(=O)N2CCCC2)s1)Nc1cccc([N+](=O)[O-])c1,14.1 µM (inactive)
21,Cc1cc(C)c2sc(NC(=O)c3ccc([N+](=O)[O-])o3)nc2c1,> 35.8 µM (inactive)
22,COC(=O)c1ccc(CNC(=O)COC(=O)c2cc(Cl)nc(Cl)c2)cc1,> 35.9 µM (inactive)
23,CC(=O)Nc1ncc(Cc2cc(Cl)ccc2Cl)s1,> 35.9 µM (inactive)
